Data: patent US6057286A, “Identification and use of selective inhibitors of glycogen synthase kinase 3” (Chiron Corporation, priority 1997, dated 2000)

Tests used:
HepG2 liver cells = assay: Insulin- and glucose-stimulated glycogen synthase activity in stable tissue culture cells; assay type: cell-based; settings: addition of insulin and glucose, in the presence of the GSK3 inhibitor
Source text: Assays for glucose uptake and glycogen synthesis can be conducted as described for cell-based assays generally. To measure glucose uptake and glycogen synthesis, a variety of stable tissue culture cell lines that respond to insulin stimulation by increasing the synthesis of glycogen and increasing the rate of glucose uptake from the medium can be used. These include HepG2 liver cells, CHO-IR cells, and Hirc cells. Under appropriate conditions the addition of insulin and glucose to HepG2 cells stimulates glycogen synthase activity and this stimulation of potentiated in the presence of the GSK3 inhibitor iodotubercidin. The response of glucose uptake in these cells to insulin, glucose and inhibitor can be as much as six fold, and consequently this assay is useful to detect the ability of inhibitors to potentiate glycogen synthesis in cells.

Drosophila cells = assay: β-catenin stabilization assay of intracellular GSK3 activity (western blot); assay type: cell-based; settings: addition to Drosophila cells; detected on a western blot
Source text: Other assays that test functional GSK3 also provide a further test of intracellular GSK3 activity. These assays rely on the ability to observe indirect consequences of GSK3 activity within cells. An example of such an assay involves β-catenin stabilization. Cellular GSK3 activity leads to the destabilization of cytosolic pools of β-catenin in certain types of cell. Consequently, inhibition of GSK3 results in β-catenin stabilization and accumulation, which be detected on a western blot. […] Similarly, LiCl in the cell culture medium causes an increase in intracellular β-catenin levels as described in Stambolic et al, Cur. Biol. 6(12): 1664-8 (1996).

Nc1ncnc2c1c(I)cn2[C@@H]1O[C@H](CO)[C@@H](O)[C@H]1O [iodotubercidin]
stimulation of glycogen synthase activity by insulin and glucose (HepG2 liver cells): potentiated
β-catenin accumulation (Drosophila cells): leads to β-catenin accumulation
